Reference: PMC12024264, “Frog Skin Peptides Hylin-a1, AR-23, and RV-23: Promising Tools Against Carbapenem-Resistant Escherichia coli and Klebsiella pneumoniae Infections” (Antibiotics, 2025)
Converted amounts (≈) assume the structure as drawn. Like-named read-outs stand apart in the source and are kept apart here.

Tests used:
Experiment in all cases: Antibiotic resistance profile of clinical isolate (Table S1)
K. pneumoniae 1711 = assay type: cell-based, Klebsiella pneumoniae
Method: (§1) Each strain was grown in Mueller Hinton Broth (MH Broth), and 5 × 10^5 CFU/mL was used to evaluate antibacterial activity. Clinical carbapenem-resistant K. pneumoniae and E. coli isolates were collected at the AOU of Virology and Microbiology of the University of Campania “Luigi Vanvitelli”. […]
(§2) Table S1. Antibiotic resistance profile of K. pneumoniae and E. coli clinical isolates . MIC: Minimum Inhibitory
(§3) Concentration was expressed in µg/mL; S: Sensible; I: Intermediate; R: Resistant.
(§4) Antibiotic Resistance Profile of the Clinical Isolated Bacteria
(§5) Antibiotics MIC (µg/mL) Interpretation […]

K. pneumoniae 1745 = assay type: cell-based, Klebsiella pneumoniae
Method: as §1, §2, §3, §4, §5

K. pneumoniae 1746 = assay type: cell-based, Klebsiella pneumoniae
Method: as §1, §2, §3, §4, §5

K. pneumoniae 311 = assay type: cell-based, Klebsiella pneumoniae
Method: as §1, §2, §3, §4, §5

E. coli 1376 = assay type: cell-based, Escherichia coli
Method: as §1, §2, §3, §4, §5

E. coli 1441 = assay type: cell-based, Escherichia coli
Method: as §1, §2, §3, §4, §5

E. coli 2267 = assay type: cell-based, Escherichia coli
Method: as §1, §2, §3, §4, §5

E. coli 3140 = assay type: cell-based, Escherichia coli
Method: as §1, §2, §3, §4, §5

E. coli 716 = assay type: cell-based, Escherichia coli
Method: as §1, §2, §3, §4, §5

[1] = Klebsiella pneumoniae, Table S1, K. pneumoniae 1711, read-out: MIC
[2] = Klebsiella pneumoniae, Table S1, K. pneumoniae 1745, read-out: MIC
[3] = Escherichia coli, Table S1, E. coli 2267, read-out: MIC

Molecule | Interpretation (K. pneumoniae 1711; Table S1, K. pneumoniae 1711) | Interpretation (K. pneumoniae 1745; Table S1, K. pneumoniae 1745) | MIC (K. pneumoniae 1746; Klebsiella pneumoniae, 1746) [µg/mL] | Interpretation (K. pneumoniae 1746; Table S1, K. pneumoniae 1746) | MIC (K. pneumoniae 311; Klebsiella pneumoniae, 311) [µg/mL] | Interpretation (K. pneumoniae 311; Table S1, K. pneumoniae 311) | MIC (E. coli 1376; Escherichia coli, 1376) [µg/mL] | Interpretation (E. coli 1376; Table S1, E. coli 1376) | MIC (E. coli 1441; Escherichia coli, 1441) [µg/mL] | Interpretation (E. coli 1441; Table S1, E. coli 1441) | Interpretation (E. coli 2267; Table S1, E. coli 2267) | MIC (E. coli 3140; Escherichia coli, 3140) [µg/mL] | Interpretation (E. coli 3140; Table S1, E. coli 3140) | MIC (E. coli 716; Escherichia coli, 716) [µg/mL] | Interpretation (E. coli 716; Table S1, E. coli 716) | MIC (K. pneumoniae 1711; [1]) [µg/mL] | MIC (K. pneumoniae 1745; [2]) [µg/mL] | MIC (E. coli 2267; [3]) [µg/mL] | MIC (K. pneumoniae 1711; Table S1, K. pneumoniae 1711) | MIC (K. pneumoniae 1745; Table S1, K. pneumoniae 1745) | other results
CNC(C)C1CCC(N)C(OC2C(N)CC(N)C(OC3OCC(C)(O)C(NC)C3O)C2O)O1 (centres unmarked) [Gentamicin] | R | R | 2 (≈ 4.19 µM) | S | > 4 | R | > 4 | R | ≤ 1 | S | S | ≤ 1 | S | ≤ 1 | S |  |  |  |  |  | MIC (K. pneumoniae 1711; Klebsiella pneumoniae, 1711): > 4 µg/mL; MIC (K. pneumoniae 1745; Klebsiella pneumoniae, 1745): > 4 µg/mL; MIC (E. coli 2267; Escherichia coli, 2267): ≤ 1 µg/mL
CC1(C)S[C@@H]2[C@H](NC(=O)[C@H](N)c3ccccc3)C(=O)N2[C@H]1C(=O)O [Ampicillin] | R | R | > 8 | R | > 8 | R | > 8 | R | > 8 | R | R | > 8 | R | > 8 | R |  |  |  |  |  | MIC (K. pneumoniae 1711; Klebsiella pneumoniae, 1711): > 8 µg/mL; MIC (K. pneumoniae 1745; Klebsiella pneumoniae, 1745): > 8 µg/mL; MIC (E. coli 2267; Escherichia coli, 2267): > 8 µg/mL
NCC[C@H](O)C(=O)N[C@@H]1C[C@H](N)[C@@H](O[C@H]2O[C@H](CN)[C@@H](O)[C@H](O)[C@H]2O)[C@H](O)[C@H]1O[C@H]1O[C@H](CO)[C@@H](O)[C@H](N)[C@H]1O [Amikacin] | S | S | ≤ 4 | S | ≤ 4 | S | > 16 | R | ≤ 4 | S | S | ≤ 4 | S | ≤ 4 | S | ≤ 4 | 8 (≈ 13.7 µM) | ≤ 4 |  |  | 
Trimethoprim/sulfamethoxazole | R | R |  | S |  | S |  | R |  | S | R |  | S |  | R |  |  |  | > 4/76 | > 4/76 | MIC (K. pneumoniae 1746; Table S1, K. pneumoniae 1746): ≤ 1/19; MIC (K. pneumoniae 311; Table S1, K. pneumoniae 311): 2/38; MIC (E. coli 1376; Table S1, E. coli 1376): > 4/76; MIC (E. coli 1441; Table S1, E. coli 1441): ≤ 1/19; MIC (E. coli 2267; Table S1, E. coli 2267): > 4/76; MIC (E. coli 3140; Table S1, E. coli 3140): ≤ 1/19; MIC (E. coli 716; Table S1, E. coli 716): > 4/76
Meropenem-vaborbactam | R | R |  | S |  | S |  | R |  | S | R |  | S |  | R |  |  |  | > 8/8 | > 8/8 | MIC (K. pneumoniae 1746; Table S1, K. pneumoniae 1746): ≤ 2/8; MIC (K. pneumoniae 311; Table S1, K. pneumoniae 311): 4/ 8; MIC (E. coli 1376; Table S1, E. coli 1376): > 8/8; MIC (E. coli 1441; Table S1, E. coli 1441): ≤ 2/8; MIC (E. coli 3140; Table S1, E. coli 3140): ≤ 2/8; MIC (E. coli 716; Table S1, E. coli 716): > 32/2
CO/N=C(\C(=O)N[C@@H]1C(=O)N2C(C(=O)O)=C(CSc3nc(=O)c(=O)[nH]n3C)CS[C@H]12)c1csc(N)n1 [Ceftriaxone] | R | R | > 4 | R | > 4 | R | > 4 | R | > 4 | R | R | ≤ 0.5 | S | > 4 | R | > 4 | > 4 | > 4 |  |  | 
C[C@@H](O)[C@H]1C(=O)N2C(C(=O)O)=C(S[C@@H]3CN[C@H](C(=O)Nc4cccc(C(=O)O)c4)C3)[C@H](C)[C@H]12 [Ertapenem] | R | R | > 1 | R | > 1 | R | > 1 | R | > 1 | R | R | > 1 | R | > 1 | R | > 1 | > 1 | > 1 |  |  | 
Amoxicillin/clavulanate | R | R |  | R |  | R |  | R |  | R | R |  | R |  | R |  |  |  | > 32/2 | > 32/2 | MIC (K. pneumoniae 1746; Table S1, K. pneumoniae 1746): > 32/2; MIC (K. pneumoniae 311; Table S1, K. pneumoniae 311): > 32/2; MIC (E. coli 1376; Table S1, E. coli 1376): > 32/2; MIC (E. coli 1441; Table S1, E. coli 1441): > 32/2
C[C@H]1COc2c(N3CCN(C)CC3)c(F)cc3c(=O)c(C(=O)O)cn1c23 [Levofloxacin] | R | R | 1 (≈ 2.77 µM) | I | > 1 | R | > 1 | R | ≤ 0.25 | S | R | ≤ 0.25 | S | > 1 | R | > 1 | > 1 | > 1 |  |  | 
Piperacillin/tazobactam | R | R |  | R |  | R |  | R |  | R | R |  | R |  | R |  |  |  | > 64/4 | > 64/4 | MIC (K. pneumoniae 1746; Table S1, K. pneumoniae 1746): 32/4; MIC (K. pneumoniae 311; Table S1, K. pneumoniae 311): > 64/4; MIC (E. coli 1376; Table S1, E. coli 1376): > 64/4; MIC (E. coli 1441; Table S1, E. coli 1441): > 64/4; MIC (E. coli 2267; Table S1, E. coli 2267): > 64/4; MIC (E. coli 3140; Table S1, E. coli 3140): > 64/4; MIC (E. coli 716; Table S1, E. coli 716): > 64/4
Ceftolozano tazobactam | R | R |  | R |  | R |  | R |  | R | R |  | R |  | R |  |  |  | > 4/4 | > 4/4 | MIC (K. pneumoniae 1746; Table S1, K. pneumoniae 1746): > 4/4; MIC (K. pneumoniae 311; Table S1, K. pneumoniae 311): > 4/4; MIC (E. coli 1376; Table S1, E. coli 1376): > 4/4; MIC (E. coli 1441; Table S1, E. coli 1441): > 4/4; MIC (E. coli 2267; Table S1, E. coli 2267): > 4/4; MIC (E. coli 3140; Table S1, E. coli 3140): > 4/4; MIC (E. coli 716; Table S1, E. coli 716): > 4/4
NC[C@H]1O[C@H](O[C@H]2[C@H](O)[C@@H](O[C@H]3O[C@H](CO)[C@@H](O)[C@H](N)[C@H]3O)[C@H](N)C[C@@H]2N)[C@H](N)C[C@@H]1O [Tobramycin] | R | R | > 4 | R | > 4 | R | > 4 | R | ≤ 1 | S | S | ≤ 1 | S | ≤ 1 | S | > 4 | > 4 | ≤ 1 |  |  | 
C[C@@H](O)[C@H]1C(=O)N2C(C(=O)O)=C(SCCN=CN)C[C@H]12 [Imipenem] | R | R | 4 (≈ 13.4 µM) | I | 2 (≈ 6.68 µM) | S | > 8 | R | 4 (≈ 13.4 µM) | I | R | 2 (≈ 6.68 µM) | S | > 8 | R | > 8 | > 8 | > 8 |  |  | 
